This note sets out measurements from ChEMBL document CHEMBL3301458, “MMV Malaria Box hERG screening”.

Data set [1] addresses T1, hERG (Kv11.1, KCNH2) (Homo sapiens, UniProt Q12809). Put plainly: in vitro.
Description: MMV: Malaria Box compounds were tested for inhibition of the human ether a go-go related gene (hERG), Kv11.1 channel, using IonWorks 384-well patch clamp electrophysiology at 1.1uM (3 independent assay plates up to 12 cells per concentration).
Data set [2] deals with T1, hERG (Kv11.1, KCNH2). Put plainly: in vitro. The source holds these as a separate data set.
Description: MMV: Malaria Box compounds were tested for inhibition of the human ether a go-go related gene (hERG), Kv11.1 channel, using IonWorks 384-well patch clamp electrophysiology at 11.1uM (3 independent assay plates up to 12 cells per concentration).

Active and inactive are the calls of the source. No rule for the calls is given here.

T1 sequence (Q12809 whole entry): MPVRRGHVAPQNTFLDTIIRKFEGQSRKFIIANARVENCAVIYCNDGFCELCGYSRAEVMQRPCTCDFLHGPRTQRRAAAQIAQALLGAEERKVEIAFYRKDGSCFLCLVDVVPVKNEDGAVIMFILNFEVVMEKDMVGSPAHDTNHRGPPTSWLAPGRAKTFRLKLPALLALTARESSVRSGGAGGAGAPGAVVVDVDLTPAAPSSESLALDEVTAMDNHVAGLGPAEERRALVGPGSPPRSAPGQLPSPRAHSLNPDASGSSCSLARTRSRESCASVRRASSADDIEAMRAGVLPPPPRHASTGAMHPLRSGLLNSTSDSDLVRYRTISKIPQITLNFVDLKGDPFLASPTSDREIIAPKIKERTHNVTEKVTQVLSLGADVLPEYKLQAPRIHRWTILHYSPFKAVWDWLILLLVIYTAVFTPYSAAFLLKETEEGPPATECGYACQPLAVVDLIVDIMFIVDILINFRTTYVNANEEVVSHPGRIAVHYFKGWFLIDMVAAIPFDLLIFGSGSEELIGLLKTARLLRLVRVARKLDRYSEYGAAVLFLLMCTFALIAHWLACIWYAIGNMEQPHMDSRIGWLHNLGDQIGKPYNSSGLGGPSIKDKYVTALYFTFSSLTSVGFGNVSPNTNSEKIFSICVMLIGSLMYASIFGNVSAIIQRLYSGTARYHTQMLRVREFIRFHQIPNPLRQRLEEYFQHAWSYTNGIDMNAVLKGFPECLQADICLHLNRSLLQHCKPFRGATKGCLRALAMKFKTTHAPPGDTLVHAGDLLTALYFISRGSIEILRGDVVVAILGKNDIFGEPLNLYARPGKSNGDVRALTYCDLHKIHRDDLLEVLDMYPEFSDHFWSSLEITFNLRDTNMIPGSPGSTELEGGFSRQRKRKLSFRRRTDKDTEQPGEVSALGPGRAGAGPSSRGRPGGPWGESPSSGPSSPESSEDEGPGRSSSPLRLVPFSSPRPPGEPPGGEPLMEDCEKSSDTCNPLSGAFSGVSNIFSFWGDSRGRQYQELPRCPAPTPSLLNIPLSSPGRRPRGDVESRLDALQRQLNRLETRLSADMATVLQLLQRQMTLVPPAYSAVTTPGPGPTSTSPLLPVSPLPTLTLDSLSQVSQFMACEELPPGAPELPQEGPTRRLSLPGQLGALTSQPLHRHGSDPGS

`COc1ccc(-n2ccnc2SCC(=O)Nc2cc(C)ccc2C)c(OC)c1`: the inhibition at 1.1 µM against hERG (Kv11.1, KCNH2) [1] came to 5%. Moreover, on hERG (Kv11.1, KCNH2) [2], the inhibition at 11.1 µM was determined as 29%.
In the same order, the values of `COc1cccc(Nc2nc(NCCO)c3ccccc3n2)c1` are 18% and 57% (active).
`COCCNCC(O)Cn1c2ccc(Cl)cc2c2cc(Cl)ccc21` (stereo not given): on hERG (Kv11.1, KCNH2) [1], the inhibition at 1.1 µM came to 14%. Also, the inhibition at 11.1 µM on hERG (Kv11.1, KCNH2) [2] was 83% (active).
With `COc1ccc(N2CCN(C(CNC(=O)C3CCCCC3)c3ccc4c(c3)OCO4)CC2)cc1` (stereo not given), the inhibition at 1.1 µM on hERG (Kv11.1, KCNH2) [1] amounted to 17%. For the same compound, the inhibition at 11.1 µM on hERG (Kv11.1, KCNH2) [2] was 51% (active).
With `COc1cccc(Nc2nc(N)c3ccccc3n2)c1`, on hERG (Kv11.1, KCNH2) [1], the inhibition at 1.1 µM is 10%. The inhibition at 11.1 µM on hERG (Kv11.1, KCNH2) [2] is 9% (inactive).
Take `Cn1c(=O)c2cc(C(=O)NCCCN3CCCCCC3)sc2c2ccccc21`: the inhibition at 1.1 µM against hERG (Kv11.1, KCNH2) [1] is -5%. Moreover, on hERG (Kv11.1, KCNH2) [2], the inhibition at 11.1 µM is 6% (inactive).
On the same counts, the results for `Cc1sc2ncnc(Sc3nc4ccccc4[nH]3)c2c1C` are 8% and 16% (inactive).
`Oc1ccccc1CN1CCN(C(c2ccccc2)c2ccccc2)CC1`: the inhibition at 1.1 µM against hERG (Kv11.1, KCNH2) [1] turned out to be 13%. For the same compound, the inhibition at 11.1 µM on hERG (Kv11.1, KCNH2) [2] was 12% (inactive).
With `c1ccc2c(NCCCCCCNc3c4c(nc5ccccc35)CCCC4)c3c(nc2c1)CCCC3`, the inhibition at 1.1 µM against hERG (Kv11.1, KCNH2) [1] was 36%. Further, the inhibition at 11.1 µM on hERG (Kv11.1, KCNH2) [2] was 102% (active).
In the same order, the values of `CCC1(C)CC(CCNCc2ccccc2O)(c2ccc(C)cc2)CCO1` (stereo not given) are 2% and 73% (active).
For `CCN1CCN(c2cc(C)c3cc(NC(=O)c4ccc(OC)c(OC)c4)ccc3n2)CC1`, on hERG (Kv11.1, KCNH2) [1], the inhibition at 1.1 µM worked out at 15%. The inhibition at 11.1 µM at hERG (Kv11.1, KCNH2) [2] is 63% (active).
On the same counts, the results for `COc1ccc(C(=O)Nc2nonc2-c2ccc(OC)c(OC)c2)cc1Cl` are 7% and 9% (inactive).
As for `Oc1ccc2ccccc2c1CNc1nc2ccccc2[nH]1`, at hERG (Kv11.1, KCNH2) [1], the inhibition at 1.1 µM is -5%. Further, the inhibition at 11.1 µM at hERG (Kv11.1, KCNH2) [2] was 21% (inactive).
Consider `COc1ccc(C2NCCc3c2[nH]c2ccccc32)cc1CN1CCN(c2ccc(F)cc2)CC1` (stereo not given), for which the inhibition at 1.1 µM at hERG (Kv11.1, KCNH2) [1] came out at 18%. For the same compound, at hERG (Kv11.1, KCNH2) [2], the inhibition at 11.1 µM was 113% (active).
For the compound `Cc1cccc(Nc2nc(N)c3ccccc3n2)c1`, on hERG (Kv11.1, KCNH2) [1], the inhibition at 1.1 µM was 15%. The inhibition at 11.1 µM against hERG (Kv11.1, KCNH2) [2] came out at 49%.
In the same order, the values of `CCN(Cc1ccccc1)C1CCN(Cc2cc(Br)ccc2O)CC1` are 18% and 96% (active).
Consider `Nc1ccc(-c2nc3cc(Oc4ccc(Oc5ccc6[nH]c(-c7ccc(N)cc7)nc6c5)cc4)ccc3[nH]2)cc1`, for which, at hERG (Kv11.1, KCNH2) [1], the inhibition at 1.1 µM was 18%. Besides, the inhibition at 11.1 µM on hERG (Kv11.1, KCNH2) [2] was 23% (inactive).
As to `CCOc1cccc(C(=O)Nc2ccc(-c3nc4ccccc4[nH]3)cc2)c1`, the inhibition at 1.1 µM against hERG (Kv11.1, KCNH2) [1] is 0%. At hERG (Kv11.1, KCNH2) [2], the inhibition at 11.1 µM is -7% (inactive).
On the same counts, the results for `Cc1cc(NC(=O)c2ccc(-c3ccccc3)cc2)no1` are -2% and 12% (inactive).
On to `COc1cccc(-c2nn(C)c3sc(C(=O)NCCN4CCN(c5ccccc5F)CC4)cc23)c1`, for which the inhibition at 1.1 µM at hERG (Kv11.1, KCNH2) [1] was found to be 21%. Further, the inhibition at 11.1 µM at hERG (Kv11.1, KCNH2) [2] is 91% (active).
Consider `COc1ccccc1CNC(=O)CCn1c(=O)[nH]c2ccsc2c1=O`, for which the inhibition at 1.1 µM at hERG (Kv11.1, KCNH2) [1] is -1%. In addition, the inhibition at 11.1 µM on hERG (Kv11.1, KCNH2) [2] is 5% (inactive).
As for `O=C(Nc1ccc(N2CCN(Cc3ccccc3)CC2)cc1)c1cccs1`, the inhibition at 1.1 µM against hERG (Kv11.1, KCNH2) [1] is 12%. In addition, the inhibition at 11.1 µM on hERG (Kv11.1, KCNH2) [2] came out at 32%.
`O=C(Nc1ccc(-c2nc3cc4ccccc4cc3[nH]2)cc1)c1cccc(Br)c1`: on hERG (Kv11.1, KCNH2) [1], the inhibition at 1.1 µM was -1%. For the same compound, the inhibition at 11.1 µM on hERG (Kv11.1, KCNH2) [2] is -2% (inactive).
`O=C(Nc1ccc(N2CCCCC2)c(Cl)c1)c1ccc(Br)o1`: the inhibition at 1.1 µM against hERG (Kv11.1, KCNH2) [1] is -3%. Moreover, the inhibition at 11.1 µM at hERG (Kv11.1, KCNH2) [2] stood at 41%.
For `CCOC(=O)C1CCN(C(=O)CN2C(=O)c3ccccc3C2c2c[nH]c3ccccc23)CC1` (stereo not given), the inhibition at 1.1 µM against hERG (Kv11.1, KCNH2) [1] is -9%. Besides, on hERG (Kv11.1, KCNH2) [2], the inhibition at 11.1 µM was 18% (inactive).
